The values below are quoted from earlier work in patent publication US20060165671A1, “Novel nutraceutical compositions comprising epigallocatechin gallate” (priority 2002, published 2006).

The test system of data set [1] is rat primary hepatocytes. Conditions: concentrations from about 10 to about 100 μM.
Data set [2] relates to pre-adipocyte cells. The settings on record: compared to the specific PPAR-γ agonist ciglitazone.
The conditions of data set [3]: patients with type 2.
For data set [4], the system named is muscle and adipose cells in culture.
The conditions of data set [5]: glucose intolerant and non-insulin dependent diabetic animals.
The conditions of data set [6]: after CoQ10 supplementation, several studies.

Turning to `CC(C)CCCC(C)CCCC(C)CCCC(C)CC(=O)O` (stereo not drawn) [Phytanic acid, 3,7,11,15-tetramethylhexadecanoic acid], the uptake of glucose entry in data set [1] was “enhances uptake of glucose”. For the same molecule, the “differentiation of pre-adipocyte cells into mature adipocytes” value in data set [2] is reported as “only minor effects”.

For the molecule “1,2-dithiolane-3-pentaenoic acid [Lipoic acid]”, the glucose disposal entry in data set [3] is on record as “improves glucose disposal”. Further, the glucose transport entry in data set [4] was “stimulates glucose transport”. The “basal and insulin-stimulated glucose uptake by skeletal muscles” value in data set [5] was “raised”.

Consider `COC1=C(OC)C(=O)C(C/C=C(\C)CC/C=C(\C)CC/C=C(\C)CC/C=C(\C)CC/C=C(\C)CC/C=C(\C)CC/C=C(\C)CC/C=C(\C)CC/C=C(\C)CCC=C(C)C)=C(C)C1=O` [CoQ10, 6-Decaprenyl-2,3-dimethoxy-5-methyl-1,4-benzoquinone], for which the LDL oxidation entry in data set [6] is “reduced”.
